Results reported in PubChem BioAssay AID179 (DTP/NCI, 2004).
Active and inactive are the calls of the source.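 Rule for the calls: active = compounds giving half or more protection of infected cells from virus-caused growth loss, again on retest; inactive = the rest.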 Where a SMILES comes first, the peptide text is derived from it. [ ]: non-standard residue; d: D form. The star is where a group is joined. hSer = N[CH](CCO)C(=O)O; Boc = CC(C)(C)OC(=O)*

Test system: CEM cells HIV-1 protection, formazan growth assay
Experiment: NCI AIDS Antiviral Assay
Conditions: for IC50: measured here: growth of uninfected CEM cells
In short: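 Steps: treat uninfected and HIV-1-infected human CEM cells at five drug levels; quantify growth by soluble formazan; retest any compound reaching 50% protection; classify actives from the retest.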

Compound: NC(=O)/N=C1/CCC2C3CCCC2C13
- outcome: inactive

Compound: CCOC(=O)CC1COc2ccc3c(c21)OCO3 (stereo not given)
- EC50: > 525 µM
- IC50: 339 µM

Compound: CN=c1sc2nc(C#N)c(C#N)nc2n1C
- EC50: > 200 µM
- IC50: 10.2 µM

Compound: c1ccc2c(c1)Nc1ccccc1[P+]21c2ccccc2Nc2ccccc21
- EC50: > 2 µM
- IC50: 0.288 µM

Compound: O=c1c(S(=O)(=O)Oc2ccccc2)coc2cc(F)ccc12
- EC50: > 200 µM
- IC50: 135 µM

Compound: O=c1c2c(no[n+]2[O-])c2ccccc2n1-c1ccccc1
- EC50: > 200 µM
- IC50: 1.95 µM

Compound: COc1ccc(C2S/C(=C\c3cccc(OC)c3)C(=O)N2NC(=O)Cc2ccccc2)cc1 (stereo not given)
- EC50: > 107 µM
- IC50: > 107 µM

Compound: CC(C)(C)OC(=O)N1CCC(NC(=O)NC2CCN(C(=O)OC(C)(C)C)CC2)CC1
- EC50: > 200 µM
- IC50: > 200 µM

Compound: Nc1nc(Cl)c(N=Nc2ccc(Cl)cc2)c(NCC2(CO)CCC2)n1
- EC50: > 200 µM
- IC50: > 200 µM

Compound: CCOC(=O)c1oc2c(OC)cc(Cl)c3c2c1CCC3
- outcome: inactive

Compound: O=C(NCc1ccncc1)C1COc2cc(-c3cc(=O)c4ccccc4o3)ccc2O1 (stereo not given)
- outcome: inactive

Compound: CC(C)=C1CC(C)(C)N=C1CCC1=NC(C)(C)CC1=C(C)C
- EC50: > 50.1 µM
- IC50: 28.2 µM

Compound: CCc1n[nH]c(=O)n1N
- outcome: inactive

Compound: CC1(C)COC(=O)N1
- EC50: > 1550 µM
- IC50: > 1550 µM

Compound: CCOc1ccc(-c2coc3cc(C)c(OCC)c(C)c3c2=O)cc1
- EC50: > 200 µM
- IC50: > 200 µM

Compound: COc1c(C(=O)O)oc2c(OC)cccc12
- outcome: inactive

Compound: COC1/C=C/OC2(C)Oc3c(C)c(O)c4c(O)c(cc(OCC(=O)N5C(C)CCC5C)c4c3C2=O)NC(=O)/C(C)=C/C=C/C(C)C(O)C(C)C(O)C(C)C(OC(C)=O)C1C (stereo not given)
- EC50: > 200 µM
- IC50: 43.7 µM

Compound: CCOC(=O)Cn1nc2oc(=O)c(CCN3CCN(c4ccccc4OC)CC3)c(C)c2c1C
- EC50: > 200 µM
- IC50: > 200 µM

Compound: CN(C)C12CCCCCCC1S(=O)(=O)C2 (stereo not given)
- EC50: > 363 µM
- IC50: 302 µM

Compound: COCCCCCCCCCCCC(=O)OCC1OC(n2cc(C)c(=O)[nH]c2=O)CC1N=[N+]=[N-] (stereo not given)
- EC50: 0.0269 µM
- IC50: 34.7 µM

Compound: CC(NC(=O)C(N)CCC(=O)O)C(=O)NCP(=O)(O)O (stereo not given)
- EC50: > 200 µM
- IC50: > 200 µM

Compound: O=C1C2=C(c3ccccc31)C(c1ccc(F)cc1)N1C(=O)CCSC1=N2 (stereo not given)
- EC50: > 37.2 µM
- IC50: > 37.2 µM

Compound: O=[N+]([O-])C(C(Cl)=C(Cl)Cl)=C(N1CCCCC1)N1CCCCC1
- EC50: > 200 µM
- IC50: 186 µM

Compound: COc1ccccc1NC(=S)N/C=C(\C#N)c1nc2ccccc2s1
- EC50: > 200 µM
- IC50: 117 µM

Compound: CCOC(=O)c1ccc(-c2cccs2)n1C
- EC50: > 200 µM
- IC50: 97.7 µM

Compound: S=C(/N=c1/sc(Nc2ccccc2)nc2sc3c(c12)CCCC3)Nc1ccccc1
- EC50: > 126 µM
- IC50: > 126 µM

Compound: CC(=O)OC(C)(C)/C=C/C(=O)[C@](C)(O)[C@H]1[C@H](O)C[C@@]2(C)[C@@H]3CC=C4[C@@H](C=C(O)C(=O)C4(C)C)[C@]3(C)C(=O)C[C@]12C
- EC50: > 0.2 µM
- IC50: 0.00676 µM

Compound: NC(=S)N/N=C1\CCCc2ccccc21
- EC50: > 162 µM
- IC50: 81.3 µM

Compound: CC(=N)OC1CC2CCC1(C)C2(C)C (stereo not given)
- EC50: > 200 µM
- IC50: > 200 µM

Compound: Cc1c(Cc2ccccc2)c(=O)oc2cc(O)ccc12
- EC50: > 97.7 µM
- IC50: 93.3 µM

Compound: CC(=O)c1c2n(n(-c3ccccc3)c1=O)C(=O)c1nccnc1-2
- EC50: > 200 µM
- IC50: > 200 µM

Compound: O=C1CCC(N2C(=O)c3ccccc3C2=O)C(=O)N1 (stereo not given)
- outcome: inactive

Compound: Cc1cc(C)c(C#N)c(SC(=S)NC(=O)c2ccccc2)n1
- EC50: 158 µM
- IC50: > 200 µM

Compound: NCc1ccc(-c2ccc(-c3ccc(-c4ccc(CN)s4)s3)s2)s1
- EC50: > 100 µM
- IC50: 72.4 µM

Compound: CC1CC(=O)N(N(C)C)C(C#N)(C#N)C1(C#N)C#N (stereo not given)
- EC50: > 200 µM
- IC50: 3.16 µM

Compound: C=CC(C)(C)c1[nH]cnc1/C=C1\NC(=O)[C@H](C(C)C)NC1=O
- EC50: > 200 µM
- IC50: 2.4 µM

Compound: Cn1c(=O)c2ccccc2[n+]2c(-c3cccc([N+](=O)[O-])c3)csc12
- EC50: > 200 µM
- IC50: 148 µM

Compound: C/C=C(/C)C(=O)O[C@H]1[C@H](O)CC(c2ccc3c(c2O)C(O)=C2C(=O)C4(OC)C(O)=C(C(N)=O)C(=O)[C@H](CC(=O)c5ccccc5O)C4CC2[C@@]3(C)OC)O[C@@H]1C (stereo not given in full)
- EC50: > 2 µM
- IC50: 0.000631 µM

Compound: Nc1nc(N)c(-c2ccccc2)c(C(=O)Nc2ccccc2)n1
- EC50: > 407 µM
- IC50: > 407 µM

Compound: O=C1NC(=O)/C(=C/c2ccc(F)cc2)N1
- EC50: > 200 µM
- IC50: 191 µM

Compound: Cn1c(N)c(Br)c(=O)n(C)c1=O
- EC50: > 200 µM
- IC50: > 200 µM

Compound: O=c1[nH]oc(NS(=O)(=O)c2ccccc2)c1C1CCCCC1
- EC50: > 200 µM
- IC50: 97.7 µM

Compound: CCOC(=O)c1nc(SC)sc1NC(=O)c1ccc(OC)cc1
- EC50: 162 µM
- IC50: > 200 µM

Compound: CNC(=S)NC1CCCCC1NC(=S)NC (stereo not given)
- EC50: > 692 µM
- IC50: > 692 µM

Compound: CCOC(=O)NC(=O)c1cn(CCN2CCN(C(=O)CCCCCCCCCCNc3ncnc4nc[nH]c34)CC2)c(=O)[nH]c1=O
- outcome: inactive

Compound: CN(C)CCCN1CCC2(CCSCC2)C1
- EC50: > 186 µM
- IC50: 87.1 µM

Compound: Cc1ccc(S(=O)(=O)OC2C3CC4C(=O)OC2C4C3)cc1 (stereo not given)
- EC50: 126 µM
- IC50: > 200 µM

Compound: Cn1cnc([N+](=O)[O-])c1Sc1nc2cc(Cl)c(F)cc2[nH]1
- EC50: > 8.32 µM
- IC50: 3.09 µM

Compound: CN(C)C(=O)Nc1cc2c3c(c1)CCCN3CCC2
- EC50: 81.3 µM
- IC50: 174 µM

Compound: Cc1cc(S(=O)(=O)Nc2nc3ccccc3c(=O)n2N)c(S)cc1Cl
- EC50: 40.7 µM
- IC50: 77.6 µM

Compound: O=C(O)[C@H]1C[C@H](O)CN1C(=O)c1ccccc1SSc1ccccc1C(=O)N1C[C@H](O)C[C@H]1C(=O)O
- EC50: > 200 µM
- IC50: > 200 µM

Compound: CN(C)c1ccc(C2NCCc3c2[nH]c2ccccc32)cc1 (stereo not given)
- EC50: > 200 µM
- IC50: 25.1 µM

Compound: COc1ccc2ccc3c(c2c1)CN1CCc2cc(OC)c(OC)cc2C1C3 (stereo not given)
- outcome: inactive

Compound: COCCC(NC(=O)C(CC(C)C)NC(=O)OC(C)(C)C)C(N)=O (stereo not drawn) (Boc-Leu-[hSer](Me)-NH2; configuration not given here)
- EC50: > 200 µM
- IC50: > 200 µM

Compound: CCOC(=O)c1nc2cc(C(F)(F)F)ccc2nc1Nc1ccc(OC)c(OC)c1
- outcome: inactive

Compound: CN1CN(c2ccccc2)C2(CCNCC2)C1=O
- EC50: > 200 µM
- IC50: > 200 µM

Compound: Oc1ccc(C2CC(O)c3ccccc3O2)cc1 (stereo not given)
- outcome: inactive

Compound: NC(=O)c1ncn(C2C=CC(CP(=O)(O)O)C2)c1N (stereo not given)
- EC50: > 200 µM
- IC50: > 200 µM

Compound: COc1cc2c(cc1O)C1(Cc3ccc4c(c3C1=O)OCO4)N(C)CC2 (stereo not given)
- EC50: > 200 µM
- IC50: > 200 µM

Compound: COc1cc(C2c3c(ccc4ccccc34)C(=O)C3CCC(=O)N32)cc(OC)c1OC (stereo not given)
- EC50: > 50.1 µM
- IC50: 18.2 µM

Compound: NNc1nc2ccccc2c(=O)n1NC(=O)C(=O)Nc1cccc(C(F)(F)F)c1
- EC50: > 324 µM
- IC50: > 324 µM

Compound: O=C(O)c1ccccc1CC(Cc1ccccc1)C(=O)O (stereo not given)
- EC50: > 200 µM
- IC50: 126 µM

Compound: CC1CCCCC12C(C#N)(C#N)C2(C#N)C#N (stereo not given)
- EC50: > 20 µM
- IC50: 9.55 µM

Compound: Cc1c2ccc(Cl)cc2nc2ccc(OCCNC(=O)[C@@H](N)CCCN=C(N)N)cc12
- EC50: > 200 µM
- IC50: 30.9 µM

Compound: O=c1nc2n(c3ncccc13)CC=NN2
- EC50: > 200 µM
- IC50: > 200 µM
